Drawing on patent US9422293B2 (priority 2006, dated 2016), this text covers IC50 for 28 compounds.

For this assay, the target named is rat TRPV1 (Rattus norvegicus (Rat), UniProt O35433). The conditions noted are these: read-out: Rat IC50.

Counter-ions that a name gives are not always drawn.

Chain of rat TRPV1 (O35433 whole entry): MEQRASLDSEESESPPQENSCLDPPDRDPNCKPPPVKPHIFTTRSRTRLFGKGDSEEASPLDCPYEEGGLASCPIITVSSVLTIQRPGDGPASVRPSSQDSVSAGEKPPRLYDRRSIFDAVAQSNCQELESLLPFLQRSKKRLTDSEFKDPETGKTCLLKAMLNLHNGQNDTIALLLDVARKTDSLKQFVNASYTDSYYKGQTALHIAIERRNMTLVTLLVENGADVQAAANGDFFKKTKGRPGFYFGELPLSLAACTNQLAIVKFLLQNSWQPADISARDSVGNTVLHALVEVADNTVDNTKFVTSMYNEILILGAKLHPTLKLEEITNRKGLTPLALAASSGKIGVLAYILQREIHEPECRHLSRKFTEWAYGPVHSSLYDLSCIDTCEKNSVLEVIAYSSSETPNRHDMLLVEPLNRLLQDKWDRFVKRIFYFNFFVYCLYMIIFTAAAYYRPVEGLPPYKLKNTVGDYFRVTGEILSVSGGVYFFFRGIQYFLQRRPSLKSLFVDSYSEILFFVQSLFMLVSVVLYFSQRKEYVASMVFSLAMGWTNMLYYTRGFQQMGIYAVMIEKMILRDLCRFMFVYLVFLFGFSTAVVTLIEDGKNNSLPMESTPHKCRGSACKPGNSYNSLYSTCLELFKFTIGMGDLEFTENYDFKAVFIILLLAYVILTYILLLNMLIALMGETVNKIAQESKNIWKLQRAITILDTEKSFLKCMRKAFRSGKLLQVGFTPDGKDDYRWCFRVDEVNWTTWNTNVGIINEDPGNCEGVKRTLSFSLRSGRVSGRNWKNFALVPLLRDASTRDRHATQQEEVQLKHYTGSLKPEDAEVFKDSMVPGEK

In the case of `FC(F)(F)c1ccc(Nc2nc(-c3ccncc3)nc3c2CCN(c2ncccc2C(F)(F)F)CC3)cc1` [Example 167, 2-Pyridin-4-yl-N-[4-(trifluoromethyl)phenyl]-7-[3-(trifluoromethyl)pyridin-2-yl]-6,7,8,9-tetrahydro-5H-pyrimido[4,5-d]azepin-4-amine trifluoroacetic acid salt], the IC50 (usually the concentration that inhibits the measured activity by half) was determined as 370 nM.

Turning to `CC(C)Sc1nc2c(c(Nc3ccc(S(=O)(=O)C(F)(F)F)cc3)n1)CCN(c1ncccc1C(F)(F)F)CC2` [Example 361, 2-[(1-Methylethyl)sulfanyl]-7-[3-(trifluoromethyl)pyridin-2-yl]-N-{4-[(trifluoromethyl)sulfonyl]phenyl}-6,7,8,9-tetrahydro-5H-pyrimido[4,5-d]azepin-4-amine], the IC50 was 1530 nM.

Consider `Cc1cnc(Nc2nc(C(C)C)nc3c2CCN(c2ncccc2C(F)(F)F)CC3)cn1` [Example 187, 2-(1-Methylethyl)-N-(5-methylpyrazin-2-yl)-7-[3-(trifluoromethyl)pyridin-2-yl]-6,7,8,9-tetrahydro-5H-pyrimido[4,5-d]azepin-4-amine hydrochloride salt], for which the IC50 stood at 2850 nM.

With `Cc1cc(N)cnc1N1CCc2nc(C(C)C)nc(Nc3ccc(C(F)(F)F)cc3)c2CC1` [Example 83, [7-(5-Amino-3-methyl-pyridin-2-yl)-2-isopropyl-6,7,8,9-tetrahydro-5H-pyrimido[4,5-d]azepin-4-yl]-(4-trifluoromethyl-phenyl)-amine], the IC50 is 990 nM.

Regarding `COc1ccc(Nc2nc(N(C)C)nc3c2CCN(c2ncccc2C(F)(F)F)CC3)cc1` [Example 81B, N^4-(4-Methoxy-phenyl)-N^2,N^2-dimethyl-7-(3-trifluoromethyl-pyridin-2-yl)-6,7,8,9-tetrahydro-5H-pyrimido[4,5-d]azepine-2,4-diamine trifluoroacetic acid salt], the IC50 is 970 nM.

Regarding `FC(F)(F)c1ccc(Nc2nc(-c3ccccc3)nc3c2CCN(c2ncccc2C(F)(F)F)CC3)nc1` [Example 22, [2-Phenyl-7-(3-trifluoromethyl-pyridin-2-yl)-6,7,8,9-tetrahydro-5H-pyrimido[4,5-d]azepin-4-yl]-(5-trifluoromethyl-pyridin-2-yl)-amine], the IC50 was 130 nM.

Take `COC(=O)c1ccc(Nc2nc(C(C)C)nc3c2CCN(c2ncccc2C(F)(F)F)CC3)cc1` [Example 103, 4-[2-Isopropyl-7-(3-trifluoromethyl-pyridin-2-yl)-6,7,8,9-tetrahydro-5H-pyrimido[4,5-d]azepin-4-ylamino]-benzoic acid methyl ester]: the IC50 is 340 nM.

With `Cc1nc2c(c(Nc3ccc(C(C)(C)C)cc3)n1)CCN(c1ncccc1C(F)(F)F)CC2` [Example 15, (4-tert-Butyl-phenyl)-[2-methyl-7-(3-trifluoromethyl-pyridin-2-yl)-6,7,8,9-tetrahydro-5H-pyrimido[4,5-d]azepin-4-yl]-amine], the IC50 stood at 46 nM.

With `CN(C)c1nc2c(c(Nc3ccc(Cl)cc3)n1)CCN(c1ncccc1C(F)(F)F)CC2` [Example 50B, N^4-(4-Chloro-phenyl)-N^2,N^2-dimethyl-7-(3-trifluoromethyl-pyridin-2-yl)-6,7,8,9-tetrahydro-5H-pyrimido[4,5-d]azepine-2,4-diamine trifluoroacetic acid salt], the 50% inhibitory concentration (IC50) stood at 910 nM.

`FC(F)(F)c1ccc(Nc2ncnc3c2CCN(c2ncccc2C(F)(F)F)CC3)cc1` [Example 2, (4-Trifluoromethyl-phenyl)-[7-(3-trifluoromethyl-pyridin-2-yl)-6,7,8,9-tetra-hydro-5H-pyrimido[4,5-d]azepin-4-yl]-amine]: the IC50 amounted to 790 nM.

Regarding `FC(F)(F)c1cccnc1N1CCc2nc(C3CC3)nc(Nc3ccc(Cl)cc3)c2CC1` [Example 4, (4-Chloro-phenyl)-[2-cyclopropyl-7-(3-trifluoromethyl-pyridin-2-yl)-6,7,8,9-tetrahydro-5H-pyrimido[4,5-d]azepin-4-yl]-amine], the IC50 came out at 500 nM.

For `CC(C)c1nc2c(c(Nc3ccc(Oc4ccccc4)cc3)n1)CCN(c1ncccc1C(F)(F)F)CC2` [Example 25, [2-Isopropyl-7-(3-trifluoromethyl-pyridin-2-yl)-6,7,8,9-tetrahydro-5H-pyrimido[4,5-d]azepin-4-yl]-(4-phenoxy-phenyl)-amine], the IC50 is 770 nM.

With `O=S(=O)(c1ccc(Nc2nc(OC3CCOC3)nc3c2CCN(c2ncccc2C(F)(F)F)CC3)cc1)C(F)(F)F` (stereo not shown) [Example 331, 2-(Tetrahydrofuran-3-yloxy)-7-[3-(trifluoromethyl)pyridin-2-yl]-N-{4-[(trifluoromethyl)sulfonyl]phenyl}-6,7,8,9-tetrahydro-5H-pyrimido[4,5-d]azepin-4-amine], the IC50 stood at 500 nM.

As to `CCCCOc1nc2c(c(Nc3ccc(C(F)(F)F)nc3)n1)CCN(c1ncccc1C(F)(F)F)CC2` [Example 327, 2-(Butyloxy)-7-[3-(trifluoromethyl)pyridin-2-yl]-N-[6-(trifluoromethyl)pyridin-3-yl]-6,7,8,9-tetrahydro-5H-pyrimido[4,5-d]azepin-4-amine], the IC50 was found to be 890 nM.

Consider `CN1CCCc2ccc(Nc3nc(N4CCCCC4)nc4c3CCN(c3ncccc3C(F)(F)F)CC4)cc21` [Example 163, (1-Methyl-1,2,3,4-tetrahydro-quinolin-7-yl)-[2-piperidin-1-yl-7-(3-trifluoromethyl-pyridin-2-yl)-6,7,8,9-tetrahydro-5H-pyrimido[4,5-d]azepin-4-yl]-amine hydrochloride salt], for which the IC50 stood at 120 nM.

For the compound `CC(C)c1nc2c(c(NCCc3ccccc3Br)n1)CCN(c1ncccc1C(F)(F)F)CC2` [Example 119, N-[2-(2-Bromophenyl)ethyl]-2-(1-methylethyl)-7-[3-(trifluoromethyl)pyridin-2-yl]-6,7,8,9-tetrahydro-5H-pyrimido[4,5-d]azepin-4-amine], the IC50 came out at 1220 nM.

Regarding `Nc1nc2c(c(Nc3ccc(C(F)(F)F)cc3)n1)CCN(c1ncccc1C(F)(F)F)CC2` [Example 51, N^4-(4-Trifluoromethyl-phenyl)-7-(3-trifluoromethyl-pyridin-2-yl)-6,7,8,9-tetrahydro-5H-pyrimido[4,5-d]azepine-2,4-diamine], the IC50 was 1200 nM.

Take `OCC1CCCCN1c1nc2c(c(Nc3ccc(C(F)(F)F)cc3)n1)CCN(c1ncccc1C(F)(F)F)CC2` (stereo not shown) [Example 259, [1-(4-{[4-(Trifluoromethyl)phenyl]amino}-7-[3-(trifluoromethyl)pyridin-2-yl]-6,7,8,9-tetrahydro-5H-pyrimido[4,5-d]azepin-2-yl)piperidin-2-yl]methanol]: the IC50 worked out at 90 nM.

As for `FC(F)(F)c1ccc(Nc2nc(-c3ccco3)nc3c2CCN(c2ncccc2C(F)(F)F)CC3)cc1` [Example 144, 2-Furan-2-yl-N-[4-(trifluoromethyl)phenyl]-7-[3-(trifluoromethyl)pyridin-2-yl]-6,7,8,9-tetrahydro-5H-pyrimido[4,5-d]azepin-4-amine], the IC50 was 240 nM.

Consider `CN1CCC(Oc2nc3c(c(Nc4ccc(C(F)(F)F)cc4)n2)CCN(c2ncccc2C(F)(F)F)CC3)CC1` [Example 311, 2-[(1-Methylpiperidin-4-yl)oxy]-N-[4-(trifluoromethyl)phenyl]-7-[3-(trifluoromethyl)pyridin-2-yl]-6,7,8,9-tetrahydro-5H-pyrimido[4,5-d]azepin-4-amine], for which the IC50 was greater than 20000 nM.

Take `CN1CCC(C)(C)c2ccc(Nc3nc(Sc4ccccc4)nc4c3CCN(c3ncccc3C(F)(F)F)CC4)cc21` [Example 352, 2-(Phenylsulfanyl)-7-[3-(trifluoromethyl)pyridin-2-yl]-N-(1,4,4-trimethyl-1,2,3,4-tetrahydroquinolin-7-yl)-6,7,8,9-tetrahydro-5H-pyrimido[4,5-d]azepin-4-amine]: the IC50 is greater than 6670 nM.

In the case of `FC(F)(F)c1ccc(Nc2nc(NC3CC3)nc3c2CCN(c2ncccc2C(F)(F)F)CC3)cc1` [Example 55B, N^2-Cyclopropyl-N^4-(4-trifluoromethyl-phenyl)-7-(3-trifluoromethyl-pyridin-2-yl)-6,7,8,9-tetrahydro-5H-pyrimido[4,5-d]azepine-2,4-diamine trifluoroacetic acid salt], the 50% inhibitory concentration (IC50) came out at 150 nM.

As to `CC(C)c1nc2c(c(Nc3ccc(C(C)(C)C)cc3)n1)CCN(c1ncccc1N)CC2` [Example 284, 7-(3-Aminopyridin-2-yl)-N-[4-(1,1-dimethylethyl)phenyl]-2-(1-methylethyl)-6,7,8,9-tetrahydro-5H-pyrimido[4,5-d]azepin-4-amine], the IC50 amounted to 550 nM.

In the case of `CC(C)(C#N)c1ccc(Nc2nc(N3CCCCC3)nc3c2CCN(c2ncccc2C(F)(F)F)CC3)cc1` [Example 384, 2-Methyl-2-{4-[2-piperidin-1-yl-7-(3-trifluoromethyl-pyridin-2-yl)-6,7,8,9-tetrahydro-5H-pyrimido[4,5-d]azepin-4-ylamino]-phenyl}-propionitrile], the IC50 amounted to 40 nM.

Regarding `CC(C)(C)c1ccc(Nc2nc(N3CCOCC3)nc3c2CCN(c2ncccc2C(F)(F)F)CC3)cc1` [Example 47, (4-tert-Butyl-phenyl)-[2-morpholin-4-yl-7-(3-trifluoromethyl-pyridin-2-yl)-6,7,8,9-tetrahydro-5H-pyrimido[4,5-d]azepin-4-yl]-amine], the IC50 came out at 23 nM.

With `FC1(F)CCN(c2nc3c(c(Nc4ccc(C(F)(F)F)cc4)n2)CCN(c2ncccc2C(F)(F)F)CC3)C1` [Example 243, 2-(3,3-Difluoropyrrolidin-1-yl)-N-[4-(trifluoromethyl)phenyl]-7-[3-(trifluoromethyl)pyridin-2-yl]-6,7,8,9-tetrahydro-5H-pyrimido[4,5-d]azepin-4-amine trifluoroacetic acid salt], the IC50 was determined as 450 nM.

`COCc1nc2c(c(Nc3ccc(C(C)(C)C)cc3)n1)CCN(c1ncccc1C(F)(F)F)CC2` [Example 67B, (4-tert-Butyl-phenyl)-[2-methoxymethyl-7-(3-trifluoromethyl-pyridin-2-yl)-6,7,8,9-tetrahydro-5H-pyrimido[4,5-d]azepin-4-yl]-amine trifluoroacetic acid salt]: the half-maximal inhibitory concentration (IC50) amounted to 34 nM.

With `FC(F)(F)c1ccc(Nc2nc(N3CCOCC3)nc3c2CCN(c2ncccc2C(F)(F)F)CC3)cc1Cl` [Example 381, (3-Chloro-4-trifluoromethyl-phenyl)-[2-morpholin-4-yl-7-(3-trifluoromethyl-pyridin-2-yl)-6,7,8,9-tetrahydro-5H-pyrimido[4,5-d]azepin-4-yl]-amine], the IC50 came out at 40 nM.
